Measured values published in patent US10292968B2, “Substituted heterocycles as bromodomain inhibitors” (Zenith Epigenetics Ltd., priority 2014, dated 2019).
Structures can show the parent of a compound that is named as a salt.

Assays:
[1] = target: T1, Brd 4 bromodomain 2 (BRD4(2)) (Homo sapiens, UniProt O60885); assay: AlphaScreen inhibition of tetra-acetylated histone H4 binding to BRD4(2); conditions: BRD4(2) at 100 nM, tetra-acetylated histone H4 peptide, 30 min incubation; for IC50: read-out: Alpha Screen BRD4(2)
T1 construct: N-terminally His-tagged bromodomains (BRD4(1) at 20 nM and BRD4(2) at 100 nM); made in house; host or cells: E. coli BL21(DE3)
Protocol: (§1) Proteins were cloned and overexpressed with a N-terminal 6×His tag, then purified by nickel affinity followed by size exclusion chromatography. Briefly, E. coli BL21(DE3) cells were transformed with a recombinant expression vector encoding N-terminally Nickel affinity tagged bromodomains from Brd2, Brd3, Brd4. Cell cultures were incubated at 37° C. with shaking to the appropriate density and induced overnight with IPTG. The supernatant of lysed cells was loaded onto Ni-IDA column for purification. Eluted protein was pooled, concentrated and further purified by size exclusion chromatography. Fractions representing monomeric protein were pooled, concentrated, aliquoted, and frozen at −80° C. for use in subsequent experiments.
(§2) Binding of tetra-acetylated histone H4 peptide (Millipore) and BET bromodomains was confirmed by Amplified Luminescent Proximity Homogenous Assay (AlphaScreen). N-terminally His-tagged bromodomains (BRD4(1) at 20 nM and BRD4(2) at 100 nM) and biotinylated tetra-acetylated histone H4 (10-25 nM) were incubated in the presence of nickel chelate acceptor beads and streptavidin donor beads (PerkinAlmer, 6760000K) added to a final concentration of 2 μg/ml under green light in a white 96 well microtiter plate (Greiner). For inhibition assays, serially diluted compounds were added to the reaction mixtures in a 0.1% final concentrations of DMSO. Final buffer concentrations were 50 mM HEPES, 100 mM NaCl and 0.1% BSA buffer, pH 7.4 and optimized to 30 min incubation time. Assay plates were read at 570 nm on a Synergy H4 Plate Reader (Biotek). IC50 values were determined from a dose response curve.

[2] = target: T2, Brd4 bromodomain 1 (BRD4(1)) (Homo sapiens, UniProt O60885); assay: AlphaScreen inhibition of tetra-acetylated histone H4 binding to BRD4(1); conditions: BRD4(1) at 20 nM, tetra-acetylated histone H4 peptide, 30 min incubation; for IC50: read-out: Alpha Screen BRD4(1)
T2 construct: N-terminally His-tagged bromodomains (BRD4(1) at 20 nM and BRD4(2) at 100 nM); made in house; host or cells: E. coli BL21(DE3)
Protocol: as §1, §2

[3] = tested on: MV4-11 cells; assay: Inhibition of cell proliferation in MV4-11 cells (Cell Titer Aqueous One); type: cell-based; conditions: Human AML MV-4-11 cells, 72 h; for IC50: MV4-11
Protocol: MV4-11 cells (CRL-9591) were plated at a density of 5×10^4 cells per well in 96 well flat bottom plates and treated with increasing concentrations of test compound or DMSO (0.1%) in IMDM media containing 10% FBS and penicillin/streptomycin. Triplicate wells were used for each concentration and a well containing only media was used as a control. Plates were incubated at 37° C., 5% CO2 for 72 h before adding 20 μL of the Cell Titer Aqueous One Solution (Promega) to each well and incubated at 37° C., 5% CO2 for an additional 3-4 h. The absorbance was read at 490 nm in a spectrophotometer and the percentage of cell titer relative to DMSO-treated cells was calculated after correcting for background by subtracting the blank well's signal. IC50 values were calculated using the GraphPad Prism software.

[4] = tested on: cMYC; assay: Inhibition of cMYC expression (mRNA, real-time PCR) in MV4-11 cells; type: cell-based; conditions: Human AML MV4-11 cells, 3 h; for IC50: read-out: c-myc activity
Protocol: MV4-11 cells (CRL-9591) were plated at a density of 2.5×10^4 cells per well in 96 well U-bottom plates and treated with increasing concentrations of test compound or DMSO (0.1%) in IMDM media containing 10% FBS and penicillin/streptomycin, and incubated for 3 h at 37° C. Triplicate wells were used for each concentration. Cells were pelleted by centrifugation and harvested using the mRNA Catcher PLUS kit according to manufacturer's instructions. The eluted mRNA isolated was then used in a one-step quantitative real-time PCR reaction, using components of the RNA UltraSense™ One-Step Kit (Life Technologies) together with Applied Biosystems TaqMan® primer-probes for cMYC and Cyclophilin. Real-time PCR plates were run on a ViiA™7 real time PCR machine (Applied Biosystems), data was analyzed, normalizing the Ct values for cMYC to an internal control, prior to determining the fold expression of each sample, relative to the control.

| IC50 [1] | IC50 [2] | SMILES | further results |
| --- | --- | --- | --- |
| 3 to 30 µM | 0.3 to 3 µM | Cn1ncc2ccc(-c3[nH]c(-c4ccccc4)nc3-c3n[nH]c(=O)n3CC(C)(C)C)cc21 [Example 20, 3-(5-(1-methyl-1H-indazol-6-yl)-2-phenyl-1H-imidazol-4-yl)-4-neopentyl-1H-1,2,4-triazol-5(4H)-one] | – |
| – | 3 to 30 µM | Cn1ncc2ccc(-c3[nH]c(-c4ccccc4)nc3-c3n[nH]c(=O)n3C3CCCC3)cc21 [Example 21, 4-cyclopentyl-3-(5-(1-methyl-1H-indazol-6-yl)-2-phenyl-1H-imidazol-4-yl)-1H-1,2,4-triazol-5(4H)-one] | Alpha Screen BRD4(2) [1]: Not Active |
| – | 3 to 30 µM | NC(=O)c1cccc(-c2[nH]c(-c3ccccc3)nc2-c2n[nH]c(=O)n2C2CC2)c1 [Example 4, 3-(4-(4-cyclopropyl-5-oxo-4,5-dihydro-1H-1,2,4-triazol-3-yl)-2-phenyl-1H-imidazol-5-yl) benzamide hydrochloride] | IC50 [3]: 3 to 30 µM; Alpha Screen BRD4(2) [1]: Not Active; IC50 [4]: 3 to 30 µM |
| – | 3 to 30 µM | Cn1nc(-c2nc(-c3ccccc3)[nH]c2-c2ccc3cnn(C)c3c2)n(C2CC2)c1=O [Example 27, 4-cyclopropyl-1-methyl-3-(5-(1-methyl-1H-indazol-6-yl)-2-phenyl-1H-imidazol-4-yl)-1H-1,2,4-triazol-5(4H)-one hydrochloride] | Alpha Screen BRD4(2) [1]: Not Active |
| – | 3 to 30 µM | CC(=O)c1ccc(C)c(-c2[nH]c(-c3ccccc3)nc2-c2n[nH]c(=O)n2C2CC2)c1 [Example 11, 3-(5-(5-acetyl-2-methylphenyl)-2-phenyl-1H-imidazol-4-yl)-4-cyclopropyl-1H-1,2,4-triazol-5(4H)-one hydrochloride] | Alpha Screen BRD4(2) [1]: Not Active |
| 3 to 30 µM | 3 to 30 µM | COC(=O)c1ccc(C)c(-c2[nH]c(-c3ccccc3)nc2-c2n[nH]c(=O)n2C2CC2)c1 [Example 2, methyl 3-(4-(4-cyclopropyl-5-oxo-4,5-dihydro-1H-1,2,4-triazol-3-yl)-2-phenyl-1H-imidazol-5-yl)-4-methyl benzoate hydrochloride] | Cell Proliferation activity [3]: Not Active; c-myc activity [4]: Not Active |
| 3 to 30 µM | 3 to 30 µM | CNC(=O)c1cccc(-c2[nH]c(-c3ccccc3)nc2-c2n[nH]c(=O)n2C2CC2)c1 [Example 3, 3-(4-(4-cyclopropyl-5-oxo-4,5-dihydro-1H-1,2,4-triazol-3-yl)-2-phenyl-1H-imidazol-5-yl)-N-methyl benzamide hydrochloride] | – |
| 3 to 30 µM | 3 to 30 µM | Cn1ncc2ccc(-c3[nH]c(-c4cccnc4)nc3-c3n[nH]c(=O)n3C3CC3)cc21 [Example 24, 4-cyclopropyl-3-(5-(1-methyl-1H-indazol-6-yl)-2-(pyridin-3-yl)-1H-imidazol-4-yl)-1H-1,2,4-triazol-5(4H)-one dihydrochloride] | – |
| 3 to 30 µM | 0.3 to 3 µM | Cn1cc(-c2nc(-c3n[nH]c(=O)n3C3CC3)c(-c3ccc4cnn(C)c4c3)[nH]2)cn1 [Example 25, 4-cyclopropyl-3-(5-(1-methyl-1H-indazol-6-yl)-2-(1-methyl-1H-pyrazol-4-yl)-1H-imidazol-4-yl)-1H-1,2,4-triazol-5(4H)-one hydrochloride] | – |
| 3 to 30 µM | ≤ 0.3 µM | Cn1ncc2ccc(-c3[nH]c(-c4ccncc4)nc3-c3n[nH]c(=O)n3C3CC3)cc21 [Example 23, 4-cyclopropyl-3-(5-(1-methyl-1H-indazol-6-yl)-2-(pyridin-4-yl)-1H-imidazol-4-yl)-1H-1,2,4-triazol-5(4H)-one dihydrochloride] | – |
| 3 to 30 µM | 3 to 30 µM | Cn1ncc2ccc(-c3[nH]c(-c4cn[nH]c4)nc3-c3n[nH]c(=O)n3C3CC3)cc21 [Example 26, 4-cyclopropyl-3-(5-(1-methyl-1H-indazol-6-yl)-2-(1H-pyrazol-4-yl)-1H-imidazol-4-yl)-1H-1,2,4-triazol-5(4H)-one hydrochloride] | – |
| 0.3 to 3 µM | ≤ 0.3 µM | Cc1noc2ccc(-c3[nH]c(-c4ccccc4)nc3-c3n[nH]c(=O)n3C3CC3)cc12 [Example 16, 4-cyclopropyl-3-(5-(3-methylbenzo[d]isoxazol-5-yl)-2-phenyl-1H-imidazol-4-yl)-1H-1,2,4-triazol-5(4H)-one] | – |
| 3 to 30 µM | 0.3 to 3 µM | Cc1nn(C)c2ccc(-c3[nH]c(-c4ccccc4)nc3-c3n[nH]c(=O)n3C3CC3)cc12 [Example 15, 4-cyclopropyl-3-(5-(1,3-dimethyl-1H-indazol-5-yl)-2-phenyl-1H-imidazol-4-yl)-1H-1,2,4-triazol-5(4H)-one hydrochloride] | – |
| 0.3 to 3 µM | 0.3 to 3 µM | Cc1n[nH]c2ccc(-c3[nH]c(-c4ccccc4)nc3-c3n[nH]c(=O)n3C3CC3)cc12 [Example 13, 4-cyclopropyl-3-(5-(3-methyl-1H-indazol-5-yl)-2-phenyl-1H-imidazol-4-yl)-1H-1,2,4-triazol-5(4H)-one hydrochloride] | IC50 [3]: 3 to 30 µM; IC50 [4]: 3 to 30 µM |
| 0.3 to 3 µM | 3 to 30 µM | CC(=O)c1cncc(-c2[nH]c(-c3ccccc3)nc2-c2n[nH]c(=O)n2C2CC2)c1 [Example 12, 3-(5-(5-acetylpyridin-3-yl)-2-phenyl-1H-imidazol-4-yl)-4-cyclopropyl-1H-1,2,4-triazol-5(4H)-one formate] | – |
| 3 to 30 µM | 0.3 to 3 µM | CCC(=O)c1cccc(-c2[nH]c(-c3ccccc3)nc2-c2n[nH]c(=O)n2C2CC2)c1 [Example 6, 4-cyclopropyl-3-(2-phenyl-5-(3-propionylphenyl)-1H-imidazol-4-yl)-1H-1,2,4-triazol-5(4H)-one hydrochloride] | IC50 [3]: 3 to 30 µM; IC50 [4]: 3 to 30 µM |
| 3 to 30 µM | 0.3 to 3 µM | Cn1ncc2ccc(-c3[nH]c(-c4ccccc4)nc3-c3n[nH]c(=O)n3C3CCC3)cc21 [Example 19, 4-cyclobutyl-3-(5-(1-methyl-1H-indazol-6-yl)-2-phenyl-1H-imidazol-4-yl)-1H-1,2,4-triazol-5(4H)-one] | IC50 [4]: 3 to 30 µM |
| 3 to 30 µM | 3 to 30 µM | CC(C)n1c(-c2nc(-c3ccccc3)[nH]c2-c2ccc3cnn(C)c3c2)n[nH]c1=O [Example 22, 4-isopropyl-3-(5-(1-methyl-1H-indazol-6-yl)-2-phenyl-1H-imidazol-4-yl)-1H-1,2,4-triazol-5(4H)-one] | – |
| – | – | Cn1ncc2ccc(-c3[nH]c(-c4ccccc4)nc3-c3n[nH]c(=O)n3CC3CC3)cc21 [Example 17, 4-(cyclopropylmethyl)-3-(5-(1-methyl-1H-indazol-6-yl)-2-phenyl-1H-imidazol-4-yl)-1H-1,2,4-triazol-5(4H)-one] | Alpha Screen BRD4(2) [1]: Not Active; Alpha Screen BRD4(1) [2]: Not Active |
| – | – | O=C1CCc2ccc(-c3[nH]c(-c4ccccc4)nc3-c3n[nH]c(=O)n3C3CC3)cc21 [Example 5, 4-cyclopropyl-3-(5-(3-oxo-2,3-dihydro-1H-inden-5-yl)-2-phenyl-1H-imidazol-4-yl)-1H-1,2,4-triazol-5(4H)-one hydrochloride] | Alpha Screen BRD4(2) [1]: Not Active; Alpha Screen BRD4(1) [2]: Not Active |
| 3 to 30 µM | 0.3 to 3 µM | CC(C)Cn1c(-c2nc(-c3ccccc3)[nH]c2-c2ccc3cnn(C)c3c2)n[nH]c1=O [Example 18, 4-isobutyl-3-(5-(1-methyl-1H-indazol-6-yl)-2-phenyl-1H-imidazol-4-yl)-1H-1,2,4-triazol-5(4H)-one] | c-myc activity [4]: Not Active |
